Test results taken from publication PMC8129133, “Polymer-free corticosteroid dimer implants for controlled and sustained drug delivery” (Nature Communications, 2021).
“And” between values parts separate entries of the source, which are not always exact repeats. Equal entries are not always repeated.

Assay: In vitro release
Assay type: physicochemical
Details: for 30G x 6 mm - Cumulative Dex Release / 23G x 6 mm - Cumulative Dex Release: single samples and AVG; for Dex Release: Fig 5h implants, 1.5 ml FBS; for Cumulative Dex (%) / Cumulative Dex-TEG (%) / Cumulative Dex-TEG-Dex (%): Fig 4d pellet
Procedure: Pellets for release studies. Crystalline drug dimers were weighed on a stainless steel coupon. In the case of blends with a second drug, the dimer and drug were mixed at the desired mass ratio with mortar and pestle prior to weighing. Samples were transferred to a heat press (Carver Laboratory Press). A PTFE mold containing an array of 1 mm diameter holes of 1 mm depth was placed on top of the melt, and pressure was applied for 2 min. Molded pellets were cooled to room temperature and punched out of the mold, yielding a pellet of 1 mm height × 1 mm diameter.
Release studies were carried out using different media, including PBS (pH 7.4, Gibco), 100% FBS (Sigma, F1051), 1% FBS in PBS pH 7.4, and 3.6% BSA (Sigma, A7906) in PBS (pH 7.4, Gibco). […] Samples were incubated in release medium at 37 °C under constant agitation on an orbital shaker at 115 rpm (VWR). At designated timepoints, sampling was performed by complete removal of medium and replenishment with fresh buffer. Sampling timepoints included 24 h and then every 3–4 days thereafter. For PBS release conditions, samples were analyzed directly. For samples with protein (100% FBS, 1% FBS, 3.6% BSA), protein was precipitated by addition of acetonitrile. Samples were vortexed and centrifuged to separate extracted drug from precipitated protein. The supernatant was then analyzed for drug concentration by HPLC.

Structure (SMILES): C[C@@H]1C[C@H]2[C@@H]3CCC4=CC(=O)C=C[C@]4(C)[C@@]3(F)[C@@H](O)C[C@]2(C)[C@@]1(O)C(=O)COC(=O)OCCOCCOCCOC(=O)OCC(=O)[C@@]1(O)[C@H](C)C[C@H]2[C@@H]3CCC4=CC(=O)C=C[C@]4(C)[C@@]3(F)[C@@H](O)C[C@@]21C [Dex-TEG-Dex]
- 30G x 6 mm - Cumulative Dex Release (Fig 4e, Day 24, mean): 14632.22 ng
- 23G x 6 mm - Cumulative Dex Release, % (Fig 4e, Day 28, AVG): 5.83%
- 30G x 6 mm - Cumulative Dex Release, % (Fig 4e, Day 28, AVG): 26.07%
- 23G x 6 mm - Cumulative Dex Release (Fig 4e, Day 28): 22513.24 ng and 19328.26 ng and 15619.66 ng and 21703.43 ng and 22527.37 ng and 19996.59 ng
- 30G x 6 mm - Cumulative Dex Release (Fig 4e, Day 28): 17080.41 ng and 16856.88 ng and 15635.65 ng and 15175.33 ng and 17376.10 ng
- 23G x 6 mm - Cumulative Dex Release (Fig 4e, Day 28, mean): 20281.43 ng
- 30G x 6 mm - Cumulative Dex Release (Fig 4e, Day 28, mean): 16424.87 ng
- Cumulative Dex Release (Fig 5e extruded rods, 4.4 ml PBS, Day 3, samples and avg): 1097.22 ng and 914.62 ng and 1001.18 ng
- Cumulative Dex Release (Fig 5e extruded rods, 4.4 ml PBS, Day 3, samples and avg, mean): 1004.34 ng
- Cumulative Dex Release (Fig 5e extruded rods, 4.4 ml PBS, Day 7, samples and avg): 2505.34 ng and 2182.65 ng and 1890.99 ng
- Cumulative Dex Release (Fig 5e extruded rods, 4.4 ml PBS, Day 7, samples and avg, mean): 2192.99 ng
- Cumulative Dex Release (Fig 5e extruded rods, 4.4 ml PBS, Day 10, samples and avg): 3527.54 ng and 3009.52 ng and 2686.37 ng
- Cumulative Dex Release (Fig 5e extruded rods, 4.4 ml PBS, Day 10, samples and avg, mean): 3074.48 ng
- Cumulative Dex Release (Fig 5e extruded rods, 4.4 ml PBS, Day 14, samples and avg): 4834.31 ng and 3361.72 ng and 3917.67 ng
- Cumulative Dex Release (Fig 5e extruded rods, 4.4 ml PBS, Day 14, samples and avg, mean): 4037.90 ng
- Cumulative Dex Release (%) (Fig 5e extruded rods, PBS, Day 3, avg): 5.68%
- Cumulative Dex Release (%) (Fig 5e extruded rods, PBS, Day 7, avg): 12.40%
- Cumulative Dex Release (%) (Fig 5e extruded rods, PBS, Day 10, avg): 17.39%
- Cumulative Dex Release (%) (Fig 5e extruded rods, PBS, Day 14, avg): 22.83%
- Cumulative Dex Release (Fig 5g pellet 1x1 mm, 2 ml FBS, Day 1, samples and avg): 7893.42 ng and 9312.84 ng and 6181.88 ng
- Cumulative Dex Release (Fig 5g pellet 1x1 mm, 2 ml FBS, Day 1, samples and avg, mean): 7796.05 ng
- Cumulative Dex Release (Fig 5g pellet 1x1 mm, 2 ml FBS, Day 4, samples and avg): 30339.61 ng and 45405.22 ng and 23002.55 ng
- Cumulative Dex Release (Fig 5g pellet 1x1 mm, 2 ml FBS, Day 4, samples and avg, mean): 32915.79 ng
- Cumulative Dex Release (Fig 5g pellet 1x1 mm, 2 ml FBS, Day 7, samples and avg (Dex-TEG-Dex)): 54914.64 ng and 66482.50 ng and 47540.80 ng
- Cumulative Dex Release (Fig 5g pellet 1x1 mm, 2 ml FBS, Day 7, samples and avg (Dex-TEG-Dex), mean): 56312.65 ng
- Cumulative Dex Release (Fig 5g pellet 1x1 mm, 2 ml FBS, Day 12, samples and avg): 107363.57 ng and 105953.49 ng and 95651.85 ng
- Cumulative Dex Release (Fig 5g pellet 1x1 mm, 2 ml FBS, Day 12, samples and avg, mean): 102989.64 ng
- Cumulative Dex Release (Fig 5g pellet 1x1 mm, 2 ml FBS, Day 14, samples and avg (Dex-TEG-Dex)): 134750.54 ng and 130454.95 ng and 117349.61 ng
- Cumulative Dex Release (Fig 5g pellet 1x1 mm, 2 ml FBS, Day 14, samples and avg (Dex-TEG-Dex), mean): 127518.37 ng
- Cumulative Dex Release (%) (Fig 5g pellet, FBS, Day 1, avg): 1.53%
- Cumulative Dex Release (%) (Fig 5g pellet, FBS, Day 4, avg): 6.45%
- Cumulative Dex Release (%) (Fig 5g pellet, FBS, Day 7, avg (Dex-TEG-Dex)): 11.03%
- Cumulative Dex Release (%) (Fig 5g pellet, FBS, Day 12, avg): 20.18%
- Cumulative Dex Release (%) (Fig 5g pellet, FBS, Day 14, avg (Dex-TEG-Dex)): 24.99%
- Dex Release (Surface Area 0.4 mm2): 4010.80 ng/day and 4214.70 ng/day and 4298.12 ng/day
- Dex Release (Surface Area 2.23 mm2): 36784.29 ng/day and 23408.43 ng/day and 28616.37 ng/day
- Dex Release (Surface Area 5.3 mm2): 79250.12 ng/day and 77804.43 ng/day and 51184.45 ng/day
- Cumulative Dex (%) (3.6% BSA, Day 1): 0.09%
- Cumulative Dex-TEG (%) (3.6% BSA, Day 1): 0.00388% and 0.000233% and 0.00% and 0.00648%
- Cumulative Dex-TEG-Dex (%) (3.6% BSA, Day 1): 0.27% and 0.25% and 0.32% and 0.24% and 0.26% and 0.273%
- Cumulative Dex (%) (3.6% BSA, Day 3): 0.26%
- Cumulative Dex-TEG (%) (3.6% BSA, Day 3): 0.0221% and 0.0216% and 0.0328% and 0.0218% and 0.0264% and 0.0252%
- Cumulative Dex-TEG-Dex (%) (3.6% BSA, Day 3): 0.51% and 0.48% and 0.61% and 0.44% and 0.4979%
- Cumulative Dex-TEG (%) (3.6% BSA, Day 7): 0.08% and 0.09% and 0.10% and 0.12%
- Cumulative Dex-TEG-Dex (%) (3.6% BSA, Day 7): 0.69% and 0.68% and 0.90% and 0.62% and 0.66% and 0.7212%
- Cumulative Dex (%) (3.6% BSA, Day 10): 1.32%
- Cumulative Dex-TEG (%) (3.6% BSA, Day 10): 0.18% and 0.14% and 0.15% and 0.16% and 0.20%
- Cumulative Dex-TEG-Dex (%) (3.6% BSA, Day 10): 0.89% and 1.18% and 0.82% and 0.87% and 0.9318%
- Cumulative Dex (%) (3.6% BSA, Day 14): 1.97%
- Cumulative Dex-TEG (%) (3.6% BSA, Day 14): 0.28% and 0.21% and 0.25% and 0.22%
- Cumulative Dex-TEG-Dex (%) (3.6% BSA, Day 14): 1.13% and 1.12% and 1.43% and 0.98% and 1.06% and 1.102%
- Cumulative Dex-TEG (%) (100% FBS, Day 1): 0.00%
- Cumulative Dex-TEG-Dex (%) (100% FBS, Day 1): 0.045% and 0.05% and 0.07%
- Cumulative Dex-TEG (%) (100% FBS, Day 3): 0.02% and 0.0246% and 0.00%
- Cumulative Dex-TEG-Dex (%) (100% FBS, Day 3): 0.11% and 0.16% and 0.18%
- Cumulative Dex-TEG (%) (100% FBS, Day 7): 0.06% and 0.0546% and 0.04%
- Cumulative Dex-TEG-Dex (%) (100% FBS, Day 7): 0.22% and 0.28% and 0.36%
- Cumulative Dex-TEG (%) (100% FBS, Day 10): 0.0647% and 0.0546% and 0.06%
- Cumulative Dex-TEG-Dex (%) (100% FBS, Day 10): 0.29% and 0.38% and 0.50%
- Cumulative Dex-TEG (%) (100% FBS, Day 14): 0.08% and 0.10%
- Cumulative Dex-TEG-Dex (%) (100% FBS, Day 14): 0.39% and 0.49% and 0.68%
- Cumulative Dex Release (Fig 5d coating, 4 ml PBS, Day 3, samples and avg): 5791.09 ng and 5024.11 ng
- Cumulative Dex Release (Fig 5d coating, 4 ml PBS, Day 3, samples and avg, mean): 5535.43 ng
- Cumulative Dex Release (Fig 5d coating, 4 ml PBS, Day 7, samples and avg): 17637.28 ng and 18646.47 ng and 15578.55 ng
- Cumulative Dex Release (Fig 5d coating, 4 ml PBS, Day 7, samples and avg, mean): 17287.43 ng
- Cumulative Dex Release (Fig 5d coating, 4 ml PBS, Day 10, samples and avg): 20320.09 ng and 21014.00 ng and 17829.42 ng
- Cumulative Dex Release (Fig 5d coating, 4 ml PBS, Day 10, samples and avg, mean): 19721.17 ng
- Cumulative Dex Release (Fig 5d coating, 4 ml PBS, Day 14, samples and avg): 28452.49 ng and 28863.83 ng and 25840.72 ng
- Cumulative Dex Release (Fig 5d coating, 4 ml PBS, Day 14, samples and avg, mean): 27719.01 ng
- Cumulative Dex Release (%) (Fig 5d coating, PBS, Day 3, avg): 0.71%
- Cumulative Dex Release (%) (Fig 5d coating, PBS, Day 7, avg): 2.21%
- Cumulative Dex Release (%) (Fig 5d coating, PBS, Day 10, avg): 2.52%
- Cumulative Dex Release (%) (Fig 5d coating, PBS, Day 14, avg): 3.55%
